From patent US20210395235A1, “COMPOUND AS TGF-beta R1 INHIBITOR AND APPLICATION THEREOF” (NANJING SANHOME PHARMACEUTICAL CO., LTD., priority 2018, published 2021)

Assays:
[1] = target: T1, ALK5 (Homo sapiens, UniProt P36897); experiment: In vitro activity against ALK5 kinase (ADP-Glo Kinase Assay); format: biochemical; details: 28° C. 120 minutes
T1 construct: purchased Carna 09-141
T1 sequence (P36897 162-503 limits assumed): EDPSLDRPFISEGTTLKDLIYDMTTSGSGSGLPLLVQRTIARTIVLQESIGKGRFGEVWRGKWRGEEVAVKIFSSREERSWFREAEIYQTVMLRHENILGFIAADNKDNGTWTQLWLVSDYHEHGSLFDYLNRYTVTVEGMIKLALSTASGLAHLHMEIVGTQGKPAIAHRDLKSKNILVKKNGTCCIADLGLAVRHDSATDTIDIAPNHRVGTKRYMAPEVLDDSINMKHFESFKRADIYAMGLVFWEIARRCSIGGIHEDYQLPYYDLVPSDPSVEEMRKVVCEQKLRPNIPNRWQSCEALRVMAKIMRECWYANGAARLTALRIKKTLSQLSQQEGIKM
Experimental: For the compounds of the present disclosure prepared in the above examples, each compound was prepared into 10 mM with DMSO, and then diluted to 3.333 μM, 1.111 μM, 370 nM, 123 nM, 41 nM, 14 nM, 4.6 nM, 1.5 nM and 0.5 nM successively.
Reagents: ALK5, Cat. No. 09-141, purchased from Carna; p38α, Cat. No. 04-152, purchased from the Carna; TGFβR1 peptides, Cat. No. T36-58, purchased from SignalChem; dimethyl sulfoxide (DMSO), purchased from Sigma, US; EDTA, purchased from Sigma, US; and ADP-Glo Kinase Assay, Cat. No. v9102/3, 1×Kinase buffer (40 mM Tris, pH7.5, 0.10% BSA, 20 mM MgCl2, 1 mM DTT), purchased from Promega, and prepared immediately before use.
2.2.1.1 Preparation of 50-fold compounds: The compounds were prepared into 500 μM, 50-fold concentration as the final concentration 10 μM for detecting the compounds, which was performed as following: into a second well of a 96-well plate, 95 μl of 100% DMSO was added, and then 5 μl of the 10 mM compound solution was added, to prepare a […] compound solution; into other wells, 60 μl of 100% DMSO was added; from the second well, 30 μl of the compound was drawn out and added into a third well; such 3-fold serial dilution was continued successively until 10 dilutions of concentration were made.
The kinase was added to a 1× kinase buffer, to form a 2× enzyme solution. 2.5 μl of the 2× enzyme solution was added to a 384-well reaction plate which already contained 100 nl of 100% DMSO-dissolved compound, to incubate at room temperature for 10 minutes.
FAM labeled peptides and ATP were added to the 1× kinase buffer, to form a 2× substrate solution. 2.5 μl of the 2× substrate solution was added to the 384-well reaction plate.
The 384-well plate was incubated at 28° C. for 120 minutes.
2.5.1 An ADP-Glo reagent was equilibrated to room temperature.
2.5.2 5 μl of the reaction solution was transferred into a reaction well at another new 384-well plate.
2.5.3 5 μl of the ADP-Glo reagent was transferred into the reaction well at the 384-well plate to stop the reaction.
2.5.4 An incubation was performed at 28° C. for 120 minutes.
2.5.5 10 μl of a kinase detection reagent was transferred into each reaction well, shaken for 1 minute, and was allowed to stand for 30 minutes at room temperature.
The luminescence value of the sample was read from Envision.
2.7.1 Luminescence reading data were copied from the Envision program.
2.7.2 The values of the luminescence reading were converted into the percent inhibition by the following formula.
Percent inhibition=(max−sample RLU)/(max−min)×100, where “min” stands for the fluorescence reading of the control sample with no enzyme added to the reaction; and “max” stands for the fluorescence reading of the sample with DMSO added as a control.
2.7.3 The date were imported into MS Excel and subjected to curve fitting using XLFit excel add-in version 5.4.0.8 and a fitting formula: Y=Bottom+(Top−Bottom)/(1+(IC50/X)^HillSlope).

[2] = test system: TGFβ-ALK5-SMAD2/3 signaling pathway in Luc-Smad2/3-NIH3T3 cells; experiment: In vitro cell luciferase assay in Luc-Smad2/3-NIH3T3 cells stimulated with TGFβ1; format: cell-based; details: Mus musculus; TGFβ1 4 ng/mL, 2% FBS medium, luciferase chemiluminescence
Experimental: Test compounds: For the compounds of the present disclosure prepared in the above examples, each compound was prepared into 4 mM using DMSO. Then, a 4-fold serial dilution was made to obtain 20000.00 nM, 5000.00 nM, 1250.00 nM, 312.5 nM, 78.125 nM, 19.53 nM, 4.88 nM and 1.22 nM successively.
Luc-Smad2/3-NIH3T3 mouse fibroblasts (engineered to overexpress SMAD2,3-responsive promoter) were provided by a laboratory of China Pharmaceutical University.
Reagents: DMEM, purchased from Invitrogen, US; FBS, purchased from Invitrogen, US; DMSO, purchased from Sigma, US; Glo Lysis Buffer, purchased from Progema, US; Bright-Glo Luciferase assay system, purchased from Promega, US; and TGFβ, purchased from PeproTech, US.
Instruments: MD SpectraMaX M3 multifunctional enzyme reader, purchased from Molecular Devices, US.
Cell recovery: The cells were dissolved by placing in a […] water bath, then transferred to a 15 mL of pre-warmed culture medium, and centrifuged at 1000 rpm for 5 minutes. After the culture medium was discarded, the cells were resuspend in 15 mL of fresh culture medium, transferred to a 10 cm dish, and placed in an incubator at 37° C. with 5% CO2 for culture. After 24 hours, the culture medium for the cells was changed with a fresh culture medium.
Cell passage: The recovered cells were transferred to a 50 mL sterile centrifuge tube and centrifuged at 1000 rpm for 5 minutes. The culture medium was discarded. The evenly dispersed cells was counted, and adjusted to an appropriate cell concentration of 15 mL of fresh culture medium, added to a 10 cm dish, and placed in an incubator at 37° C. with 5% CO2 for culture.
Luc-Smad2/3-NIH3T3 cells were cultured normally in a 10 cm culture dish until the confluence reached 80%-90%. After digestion, they were collected in a 15 mL centrifuge tube, centrifuged at 1000×g for 5 minutes to remove the supernatant, and resuspended with 1 mL of medium, then diluted 10 times and counted. The cells was diluted according to the results from the count, and transferred into a 96-well plate at 4×10^3/cells per well (100 μl of resuspended cells was added in each well).
1-2 mg of the drug was weighed (weighed in advance), and prepared into a 4 mM stock solution using DMSO. After 24 hours, the culture medium was removed. The drug was diluted with 2% FBS culture medium. 100 μl of the 1× drug solution was added to make the final concentration of the drug to be 20000.00 nM, 5000.00 nM, 1250.00 nM, 312.5 nM, 78.125 nM, 19.53 nM, 4.88 nM, and 1.22 nM. TGFβ1 was present in each well at a final concentration of 4 ng/mL, and diluted with 2% FBS culture medium together with the compounds.
The Glo Lysis Buffer and the Bright-glo luciferase assay system as well as the cells were equilibrated to room temperature. After the cell supernatant was removed, the cells were dissolved evenly by adding 100 μl of the Glo Lysis Buffer to each well with shaking slowly, and lysed at room temperature for 5 minutes. After that, to each well, 100 μl of the Bright-glo luciferase assay system was added to incubate the cells for 5 minute at room temperature with shaking for 2 minutes. Then, 180 μl of the supernatant was transferred to a white bottom 96-well plate to detect chemiluminescence signal. The detection condition was 1 s.
2.3 Data processing: Graphpad Prism 5 software was used to perform nonlinear curve fitting and data analysis to obtain IC50 by fitting.

[3] = animal models; cited from earlier work

Row | Compound | IC50 [1] | IC50 [2] | cardiotoxicity (such as bleeding, functional deterioration, and inflammatory injury) [3]
1 | FC(F)(F)Cn1cc2c(n1)CN(c1ccc3c(Oc4cn(C5CC5)nc4C4CCOCC4)ccnc3c1)C2 [Example 6, 4-((1-cyclopropyl-3-(tetrahydro-2H-pyran-4-yl)-1H-pyrazol-4-yl)oxy)-7-(2-(2,2,2-trifluoroethyl)-2,6-dihydropyrrolo[3,4-c]pyrazole-5(4H)-yl)quinoline] | 66 nM | 165 nM | –
2 | CC(C)(O)c1cc(-c2ccc3c(Oc4cn(C5CC5)nc4C4CCOCC4)ccnc3c2)ccn1 [Example 16, 2-(4-(4-((1-cyclopropyl-3-(tetrahydro-2H-pyran-4-yl)-1H-pyrazol-4-yl)oxy)quinolin-7-yl)pyridin-2-yl)propan-2-ol] | 100 nM | 200 nM | –
3 | COc1cc2nccc(Oc3cn(C4CC4)nc3C3CCOCC3)c2cc1C(N)=O [Example 17, 4-((1-cyclopropyl-3-(tetrahydro-2H-pyran-4-yl)-1H-pyrazol-4-yl)oxy)-7-methoxyquinoline-6-carboxamide] | 66 nM | 131 nM | –
4 | COc1cc2nccc(Oc3cn(C4CC4)nc3C3CCOCC3)c2cc1Nc1cnn(C2COC2)c1 [Example 19, 4-((1-cyclopropyl-3-(tetrahydro-2H-pyran-4-yl)-1H-pyrazol-4-yl)oxa)-7-methoxy-N-(1-(oxetan-3-yl)-1H-pyrazol-4-yl)quinoline-6-amine] | 10 nM | 203 nM | –
5 | Cc1cccc(-c2nn3c(c2-c2ccnc4ccc(C(N)=O)cc24)CCC3)n1 [Galunisertib] | – | – | certain cardiotoxicity

Continued, in another order:

Row | IC50 [1] | Compound | IC50 [2] | cardiotoxicity (such as bleeding, functional deterioration, and inflammatory injury) [3]
6 | 5.2 nM | Cn1cc(-c2ccc3c(Oc4cn(C5CC5)nc4C4CCOCC4)ccnc3c2)cn1 [Example 7, 4-((1-cyclopropyl-3-(tetrahydro-2H-pyran-4-yl)-1H-pyrazol-4-yl)oxy)-7-(1-methyl-1H-pyrazol-4-yl)quinoline] | 81 nM | –
7 | 3.2 nM | CS(=O)(=O)c1ccc(-c2ccc3c(Oc4cn(C5CC5)nc4C4CCOCC4)ccnc3c2)cc1 [Example 15, 4-((1-cyclopropyl-3-(tetrahydro-2H-pyran-4-yl)-1H-pyrazol-4-yl)oxy)-7-(4-(methylsulfonyl)phenyl) quinoline] | 80 nM | –
8 | 6 nM | COc1cc2nccc(Oc3cn(C4CC4)nc3C3CCOCC3)c2cc1Nc1cnn(C)c1 [Example 18, 4-((1-cyclopropyl-3-(tetrahydro-2H-pyran-4-yl)-1H-pyrazol-4-yl)oxy)-7-methoxy-N-(1-methyl-1H-pyrazol-4-yl)quinoline-6-amine] | 87 nM | –
